Consider 1 molecule from PMC11106165, “Repurposing the KCa3.1 Blocker Senicapoc for Ischemic Stroke” (Translational Stroke Research, 2023).

pIC50: −log10 of the molar value. Values joined by “and” are separate entries in the source; they are usually repeats but may differ in a detail not shown here. Identical values can stand only once.

Data set [1] deals with male C57BL/6 J mice, tMCAO. Put plainly: tMCAO (60 min) in mice, infarct area by T2-weighted MRI. Format: in vivo, mouse. As to the method:
Reversible focal cerebral ischemia was induced by occlusion of the left middle cerebral artery (MCA) according to the classic filament method of Zea Longa as previously described for mice by our laboratory. All surgeries were performed in the MicroSurgery Core of the UC Davis School of Medicine by a microsurgeon with 20 years of surgical experience using a silicone rubber-coated nylon monofilament with a tip diameter of 0.21 ± 0.02 mm (No. 702112PK5Re, Doccol Corporation). Anesthesia was induced with 5% isoflurane and then maintained with 0.5 to 1.5% isoflurane in medical pure oxygen administered through a facemask. To assure consistent and continuous reduction of cerebral blood flow (CBF), a laser Doppler (Moor Instruments: MOORVMS-LDF) probe adapter was affixed to the surface of the skull over the brain area supplied by the MCA using dental cement. The probe remained in place throughout the MCAO surgery and CBF was measured continuously to confirm occlusion and later establishment of reperfusion. Animals were kept under anesthesia and body temperature was monitored throughout the whole procedure and maintained at > 36.5 °C using a feedback-controlled heating pad. Following 60 min of MCAO, the filament was withdrawn to allow reperfusion. Blood flow measurements were continued for another 15 min before removing the adapter and the laser Doppler probe. Animals received subcutaneous Buprenex at 0.02 mg/kg every 12 h to limit post-surgical pain for 24 h after surgery. The survival rate was 93%. […] In this study, out of the animals surviving to day 8 (45 out of 48), two animals were excluded because they lacked an obvious neurological deficit score at 12 h. Animals that met inclusion criteria were assigned to the 3 groups (low- and high-dose senicapoc or vehicle) based on a computer-generated randomization scheme. […]
Infarct volume was evaluated with T2-weighted MRI imaging in the Nuclear Magnetic Resonance Facility at UC Davis. […] The multi-slice multi-echo (sequence (TE:56 ms; TR: 1681.2 ms) was used to acquire images of 7 coronal sections with 1-mm thickness from the junction of olfactory bulb and cortex. The infarct area was analyzed with Adobe Photoshop Elements by an investigator blinded to the treatments. On day 3, infarct area was corrected for edema and calculated with the equation: (L − N)/L × 100%; L, left (contralateral) hemisphere area; N, non-infarcted tissue area in the ipsilateral hemisphere. By day 8 post tMCAO, there typically is either only minimal or no associated cerebral edema, so no correction for edema is required and the percentage of infarcted area was calculated with the equation: (Infarct Area/Ipsilateral Hemisphere Area) × 100%.

The next data set deals with T1, KCa3.1 (Mus musculus, UniProt O89109).
T1 construct: endogenous in cells; host or cells: immortalized mouse microglial cell (MMC) line
Briefly: Whole-cell patch-clamp of KCa3.1 currents in mouse microglial cells (MMC). Format: cell-based. The following applies: 1 µM free Ca2+, ramp -120 to +40 mV, mean ± 95% confidence interval, n = 4, read-out: IC50 for block of microglial KCa3.1 currents. The procedure: An immortalized mouse microglial cell (MMC) line was kindly provided by Dr. D.T. Golenbock (University of Massachusetts Medical School, Worcester, MA) and previously used by our laboratory. Cells were cultured in Gibco’s Dulbecco’s modified Eagle’s Medium (DMEM, high glucose, L-glutamine, high pyruvate) with 5% CO2 at 37° with 1% penicillin/streptomycin and 10% fetal bovine serum. For the qPCR experiments, cells were seeded at 200,000 cells/mL; 24 h later, medium was changed to DMEM with 2% FBS and cells were stimulated with 100 ng/mL lipopolysaccharide (LPS), in the presence or absence of senicapoc, or a 0.2% DMSO control. Cells were pre-incubated with senicapoc for 1 h prior to stimulation and harvested 24 h after stimulation.
MMCs were plated on poly-lysine-coated glass coverslips and KCa3.1 currents recorded in the whole-cell mode of the patch-clamp technique with an EPC-10 HEKA amplifier and 1 microM of free Ca^2+ in the pipette solution as previously described.

Data set [2] deals with patients with sickle cell disease and healthy volunteers. The following applies: cited from earlier work.
The subject of data set [3] is MMC (mouse microglial cell line). Put plainly: Fluo-4 calcium imaging of ATP-induced Ca2+ signaling in MMC. Format: cell-based. The following applies: 100 µM ATP, Fluo-4 ΔF/F. As to the method:
Real-time changes of [Ca^2+]i in MMCs seeded on glass coverslips at a density of 10,000 cells/cm^2 were measured using the time-lapse imaging module on a BZ-X780 fluorescence microscopy (Keyence LLC, Campbell, CA) and the fluorescent calcium indicator Fluo-4/AM from Invitrogen (ThermoFisher, Waltham, MA) as previously described. For testing the effect of KCa3.1 inhibition on intracellular calcium changes, cells were pre-incubated with senicapoc during the de-esterification step and throughout the course of the experiment. All fluorescence measurements were made at 2-s intervals at room temperature from subconfluent areas of the coverslips to ensure that only individual microglia were measured. Image data were analyzed off-line with Fiji using the ROI-1 click tool and the change in microglial [Ca^2+]i was represented as ΔF/F (change in fluorescence after baseline-subtraction).

As for `NC(=O)C(c1ccccc1)(c1ccc(F)cc1)c1ccc(F)cc1` [senicapoc], the T2-weighted lesion area is reported as 11.6 ± 1.1% in data set [1] (10 mg/kg IP twice daily started 12 h after reperfusion, day 8, n = 7, vehicle 20.5 ± 1.3%); 9.3 ± 1.3% in data set [1] (40 mg/kg IP twice daily started 12 h after reperfusion, day 8, n = 7, vehicle 20.5 ± 1.3%); 16.1 ± 3.1% in data set [1] (40 mg/kg started 3 h after tMCAO, day 3, n = 8, P = 0.199, vehicle 21.4 ± 2.3%); 11.7 ± 1.8% in data set [1] (40 mg/kg started 3 h after tMCAO, day 8, n = 8, P = 0.0318, vehicle 16.6 ± 1.0%). For the same molecule, the pIC50 at KCa3.1 was 8.15 and 8.16. For the same molecule, the “hemolysis, hematocrit and hemoglobin levels in phase II study” value in data set [2] (10 mg/day, double-blind placebo-controlled) was “reduced hemolysis and significantly increased hematocrit and hemoglobin levels”. Besides, in data set [2], the “phase III endpoint: reduction in number of vaso-occlusive pain crises” value is “did not meet the set clinical endpoint”. In addition, the “tolerability in dose escalating phase I clinical trials” value in data set [2] (healthy volunteers and patients with sickle cell disease) was “well tolerated”. For the same molecule, the “Ca2+ influx induced by ATP” value in data set [3] is recorded as “concentration-dependently reduced”.

By pIC50 is commonly meant −log10 of the IC50, conventionally taken in molar units.
